Test results from paper PMC12339163, “Combining Plant Bioactives With Antibiotics for Enhanced Antibiofilm Activity Against Uropathogenic Staphylococcus spp. and Cytotoxicity Evaluation” (Advances in Pharmacological and Pharmaceutical Sciences, 2025).

Legend:
Type in all cases: cell-based
Raw 264.7 macrophages = experiment: Cytotoxicity, MTT assay; settings: Mus musculus, RAW264.7, 48 h, Raw 264.7, MTT, read-out: IC50
Experimental: (§1) Two cell lines, including Raw 264.7 macrophages and the urinary epithelial cell line UROtsa obtained from the American Type Culture Collection (Rockville, MD, USA), were used. They were cultured in Dulbecco's modified Eagle's medium (DMEM), which was supplemented with 10% fetal bovine serum (FBS) and 1% penicillin, streptomycin, and fungizone (PSF). They were then grown at 37°C in a humidified environment containing 5% CO2.
(§2) The cytotoxicity of the selected synergistic combinations, as well as the individual constituents of combinations, against the abovementioned cell lines was performed by the MTT assay as previously described. Briefly, cells from each line were harvested in the logarithmic phase using trypsin (0.05% trypsin, 0.02% EDTA in PBS). Cell suspension was diluted with an appropriate growth medium to obtain a cell density of 10^4 cells/well. A 100 µL aliquot of each suspension was seeded into 96-well cell culture plates and incubated at 37°C in an atmosphere of 5% CO2 and 95% relative humidity. After 24 h of incubation, 100 µL of samples (ATBs and NPs) at concentrations varying from 0.01, 0.1, 1, 10, 100, and 1000, as well as the synergistic combinations (C1 to C5), was added to the wells containing the cells. Doxorubicin was used as a positive control. Appropriate controls with an equivalent concentration of DMSO were also included. Plates were incubated for 48 h, then the medium in each well was aspirated, and MTT solution (2 mg/mL in PBS) was diluted 1:10 with fresh medium and added to each well, and the plates were further incubated at 37°C for 4 h. Absorbance was measured on a BioTek microplate reader at 570 nm. The percentage of cell viability was calculated by comparing treated and untreated cells using the equation [39]:(3) cell viability %=ODtest/ODcontrol×100.
(§3) Then, the IC50 values of the samples having shown at least 50% inhibition were calculated by plotting the percentage of inhibition against the concentrations.

[1] = system: UROtsa urinary epithelial cells; experiment: Cytotoxicity, MTT assay; settings: Epithelial cell, 48 h, read-out: IC50
Experimental: as §1, §2, §3

[2] = system: Staphylococcus saprophyticus biofilm; experiment: Checkerboard combination assay, biofilm eradication; settings: S. saprophyticus biofilm eradication; natural product alone; mean MBEC
Experimental: (§4) The effect of the combination of ATBs with NPs on the preformed biofilm was evaluated by determining the FICI, as described above for biofilm formation, with slight modifications. After biofilm formation for 24 h, the plate was gently emptied and washed three times with PBS. Then, 50 µL of ATBs and 50 µL of NPs were introduced to the plate. The final concentration ranges from 0.0625 to 128 µg/mL and from 4 to 512 µg/mL for ATBs and NPs, respectively, and is incubated at 37°C for 24 h. After incubation, the medium was gently removed, and the plate was washed three times with PBS. At the end of the incubation time, the MTT reduction assay was performed, and the MBEC was determined. To assess the effect of the combination, the FICI was calculated and interpreted as described above.

[3] = system: Staphylococcus epidermidis biofilm; experiment: as above; settings: S. epidermidis biofilm eradication; natural product alone; mean MBEC
Experimental: as §4

Structure (SMILES)	IC50 (Raw 264.7 macrophages) [µg/mL]	IC50 [1] [µg/mL]	MBEC Alone NPs [2] [µg/mL]	MBEC Alone NPs [3] [µg/mL]
COc1cccc2c1C(=O)c1c(O)c3c(c(O)c1C2=O)C[C@@](O)(C(=O)CO)C[C@@H]3O[C@H]1C[C@H](N)[C@H](O)[C@H](C)O1 [Doxorubicin, doxorubicin]	1.26	1.58	–	–
O=c1c(O)c(-c2ccc(O)c(O)c2)oc2cc(O)cc(O)c12 [Quer]	–	–	256	170.66
